Source: patent publication US20240239752A1, “BICYCLIC HETEROAROMATIC INHIBITORS OF KLK5” (BioCryst Pharmaceuticals, Inc., priority 2021, published 2024)

target: T1, recombinant human KLK5 (Homo sapiens, UniProt Q9Y337); test: Kallikrein (KLK) 5 enzymatic assay (Boc-VPR-AMC fluorogenic substrate); type: biochemical; settings: recombinant human KLK5 0.1 μg/well, Boc-VPR-AMC 100 μM, pH 7.5, room temperature, 1% DMSO; tested a minimum of three times
T1 construct: purchased Novoprotein or R&D Systems C415 or 1108-SE
T1 sequence (Q9Y337 23-293): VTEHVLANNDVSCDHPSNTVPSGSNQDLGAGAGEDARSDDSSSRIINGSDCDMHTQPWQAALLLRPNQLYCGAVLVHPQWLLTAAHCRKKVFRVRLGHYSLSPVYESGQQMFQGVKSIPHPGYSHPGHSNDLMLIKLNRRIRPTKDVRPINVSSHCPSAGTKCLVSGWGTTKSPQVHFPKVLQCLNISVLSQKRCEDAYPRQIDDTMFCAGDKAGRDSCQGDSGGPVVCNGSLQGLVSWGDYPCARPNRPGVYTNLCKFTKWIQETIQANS
Method in brief: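 Fluorogenic rate assay at pH 7.5 (0.1 M NaH2PO4, 1% DMSO, room temperature), run at least three times per compound. Compound was premixed with 0.1 μg/well recombinant human KLK5 before adding 100 μM Boc-VPR-AMC; AMC release was read at ex 380/em 460 nm, and IC50 derived from inhibition of rate vs DMSO control.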

IC50 | Structure (SMILES)
< 1000 nM | CC(C)OC(=O)N1CC[C@@H](n2nc(COc3ccccc3CC(=O)O)c3cc(-c4ccc5ccnc(N)c5c4)ccc32)C1 [Compound 362c, (R)-2-(2-((5-(1-aminoisoquinolin-7-yl)-1-(1-(isopropoxycarbonyl)pyrrolidin-3-yl)-1H-indazol-3-yl)methoxy)phenyl)acetic acid]
< 1000 nM | CC(C)OC(=O)N1CC[C@@H](n2nc(COc3ccccc3CC(=O)O)c3cc(-c4cccc5c(N)nccc45)ccc32)C1 [Compound 363b, (R)-2-(2-((5-(1-aminoisoquinolin-5-yl)-1-(1-(isopropoxycarbonyl)pyrrolidin-3-yl)-1H-indazol-3-yl)methoxy)phenyl)acetic acid]
< 1000 nM | Cc1cccc(OC2CC3(CCCC3)c3ccc(-c4cccc5c(N)nccc45)cc32)c1CC(=O)O (stereo not drawn) [Compound 366c, 2-(2-((5′-(1-aminoisoquinolin-5-yl)-2′,3′-dihydrospiro[cyclopentane-1,1′-inden]-3′-yl)oxy)-6-methylphenyl)acetic acid]
< 1000 nM | Cc1cccc(OC2CC3(CCCC3)c3ccc(-c4ccc5ccnc(N)c5c4)cc32)c1CC(=O)O (stereo not drawn) [Compound 367b, 2-(2-((5′-(1-aminoisoquinolin-7-yl)-2′,3′-dihydrospiro[cyclopentane-1,1′-inden]-3′-yl)oxy)-6-methylphenyl)acetic acid]
< 1000 nM | COC(=O)N1CCC2(CC1)CC(Oc1ccccc1CC(=O)O)c1cc(-c3ccc4ccnc(N)c4c3)ccc12 (stereo not drawn) [Compound 370c, 2-(2-((5-(1-aminoisoquinolin-7-yl)-1′-(methoxycarbonyl)-2,3-dihydrospiro[indene-1,4′-piperidin]-3-yl)oxy)phenyl)acetic acid]
< 1000 nM | COC(=O)N1CCC2(CC1)CC(Oc1ccccc1CC(=O)O)c1cc(-c3cccc4c(N)nccc34)ccc12 (stereo not drawn) [Compound 371b, 2-(2-((5-(1-aminoisoquinolin-5-yl)-1′-(methoxycarbonyl)-2,3-dihydrospiro[indene-1,4′-piperidin]-3-yl)oxy)phenyl)acetic acid]
< 1000 nM | CCOC(=O)N1CCC2(CC1)CC(Oc1ccccc1CC(=O)O)c1cc(-c3cccc4c(N)nccc34)ccc12 (stereo not drawn) [Compound 372b, 2-(2-((5-(1-aminoisoquinolin-5-yl)-1′-(ethoxycarbonyl)-2,3-dihydrospiro[indene-1,4′-piperidin]-3-yl)oxy)phenyl)acetic acid]
< 1000 nM | CC(C)OC(=O)N1CCC2(CC1)CC(Oc1ccccc1CC(=O)O)c1cc(-c3ccc4ccnc(N)c4c3)ccc12 (stereo not drawn) [Compound 374c, 2-(2-((5-(1-aminoisoquinolin-7-yl)-1′-(isopropoxycarbonyl)-2,3-dihydrospiro[indene-1,4′-piperidin]-3-yl)oxy)phenyl)acetic acid]
< 1000 nM | CC(C)OC(=O)N1CCC2(CC1)CC(Oc1ccccc1CC(=O)O)c1cc(-c3cccc4c(N)nccc34)ccc12 (stereo not drawn) [Compound 375b, 2-(2-((5-(1-aminoisoquinolin-5-yl)-1′-(isopropoxycarbonyl)-2,3-dihydrospiro[indene-1,4′-piperidin]-3-yl)oxy)phenyl)acetic acid]
< 1000 nM | Nc1nccc2c(-c3ccc4c(c3)C(Oc3ccccc3CC(=O)O)CC43CCCCC3)cccc12 (stereo not drawn) [Compound 376f, 2-(2-((5′-(1-aminoisoquinolin-5-yl)-2′,3′-dihydrospiro[cyclohexane-1,1′-inden]-3′-yl)oxy)phenyl)acetic acid]
< 1000 nM | Cc1cccc(OC2CC3(CCCCC3)c3ccc(-c4cccc5c(N)nccc45)cc32)c1CC(=O)O (stereo not drawn) [Compound 377c, 2-(2-((5′-(1-aminoisoquinolin-5-yl)-2′,3′-dihydrospiro[cyclohexane-1,1′-inden]-3′-yl)oxy)-6-methylphenyl)acetic acid]
< 1000 nM | Cc1cccc(OC2CC3(CCCCC3)c3ccc(-c4ccc5ccnc(N)c5c4)cc32)c1CC(=O)O (stereo not drawn) [Compound 378b, 2-(2-((5′-(1-aminoisoquinolin-7-yl)-2′,3′-dihydrospiro[cyclohexane-1,1′-inden]-3′-yl)oxy)-6-methylphenyl)acetic acid]
< 1000 nM | COC(=O)N1CCC2(CC1)CC(Oc1cccc(C)c1CC(=O)O)c1cc(-c3ccc4ccnc(N)c4c3)ccc12 (stereo not drawn) [Compound 381e, 2-(2-((5-(1-aminoisoquinolin-7-yl)-1′-(methoxycarbonyl)-2,3-dihydrospiro[indene-1,4′-piperidin]-3-yl)oxy)-6-methylphenyl)acetic acid]
< 1000 nM | COC(=O)N1CCC2(CC1)CC(Oc1cccc(C)c1CC(=O)O)c1cc(-c3cccc4c(N)nccc34)ccc12 (stereo not drawn) [Compound 382b, 2-(2-((5-(1-aminoisoquinolin-5-yl)-1′-(methoxycarbonyl)-2,3-dihydrospiro[indene-1,4′-piperidin]-3-yl)oxy)-6-methylphenyl)acetic acid]
< 1000 nM | Cc1cccc(OC2CC3(CCN(C(=O)OC(C)C)CC3)c3ccc(-c4ccc5ccnc(N)c5c4)cc32)c1CC(=O)O (stereo not drawn) [Compound 383c, 2-(2-((5-(1-aminoisoquinolin-7-yl)-1′-(isopropoxycarbonyl)-2,3-dihydrospiro[indene-1,4′-piperidin]-3-yl)oxy)-6-methylphenyl)acetic acid]
< 1000 nM | Cc1cccc(OC2CC3(CCN(C(=O)OC(C)C)CC3)c3ccc(-c4cccc5c(N)nccc45)cc32)c1CC(=O)O (stereo not drawn) [Compound 384b, 2-(2-((5-(1-aminoisoquinolin-5-yl)-1′-(isopropoxycarbonyl)-2,3-dihydrospiro[indene-1,4′-piperidin]-3-yl)oxy)-6-methylphenyl)acetic acid]
< 1000 nM | CCC(=O)N1CCC2(CC1)CC(Oc1ccccc1CC(=O)O)c1cc(-c3cccc4c(N)nccc34)ccc12 (stereo not drawn) [Compound 385c, 2-(2-((5-(1-aminoisoquinolin-5-yl)-1′-propionyl-2,3-dihydrospiro[indene-1,4′-piperidin]-3-yl)oxy)phenyl)acetic acid]
< 1000 nM | CCC(=O)N1CCC2(CC1)CC(Oc1ccccc1CC(=O)O)c1cc(-c3ccc4ccnc(N)c4c3)ccc12 (stereo not drawn) [Compound 386b, 2-(2-((5-(1-aminoisoquinolin-7-yl)-1′-propionyl-2,3-dihydrospiro[indene-1,4′-piperidin]-3-yl)oxy)phenyl)acetic acid]

Structure (SMILES) | IC50
CC(C)COC(=O)N1CC[C@H](n2nc(COc3ccccc3CC(=O)O)c3cc(-c4cccc5c(N)nccc45)ccc32)C1 [Compound 361b, (S)-2-(2-((5-(1-aminoisoquinolin-5-yl)-1-(1-(isobutoxycarbonyl)pyrrolidin-3-yl)-1H-indazol-3-yl)methoxy)phenyl)acetic acid] | < 1000 nM
CC(C)COC(=O)N1CC[C@@H](n2nc(COc3ccccc3CC(=O)O)c3cc(-c4ccc5ccnc(N)c5c4)ccc32)C1 [Compound 364c, (R)-2-(2-((5-(1-aminoisoquinolin-7-yl)-1-(1-(isobutoxycarbonyl)pyrrolidin-3-yl)-1H-indazol-3-yl)methoxy)phenyl)acetic acid] | < 1000 nM
CC(C)COC(=O)N1CC[C@@H](n2nc(COc3ccccc3CC(=O)O)c3cc(-c4cccc5c(N)nccc45)ccc32)C1 [Compound 365b, (R)-2-(2-((5-(1-aminoisoquinolin-5-yl)-1-(1-(isobutoxycarbonyl)pyrrolidin-3-yl)-1H-indazol-3-yl)methoxy)phenyl)acetic acid] | < 1000 nM
